Test system: primary cortical neurons
Experiment: Analysis of neurite outgrowth and survival of cultured adult cortical neurons (TUBB3/DAPI high-content imaging)
Format: cell-based, mouse
Conditions: for average neurite length vs Vehicle / number of valid neurons vs Vehicle / total neurite outgrowth vs Vehicle: 150 nM 7-epi Paclitaxel; for average neurite length vs Vehicle / number of valid neurons vs Vehicle / total neurite outgrowth vs Vehicle / overall screening result: 3DIV; for overall screening result: 7-epi Paclitaxel
Experimental: The instant example provides an exemplary protocol, method, and application of processing and screening using adult cortical neurons obtained from adult mice. In particular, the instant example used young adult and middle-aged male and female wild-type C57Bl/6 mice in which the young adult group comprised mice of 4-9 weeks of age and the middle-age group comprised mice of 40-48 weeks of age.
Approximately 20 μL of 50 μg/mL Poly-D-Lysine (PDL, Sigma Aldrich, A-003-M) was added onto the wells of 384-well glass bottom (Brooks Life Sciences, MGB101-1-2-LG-L) or plastic bottom (Greiner-Bio, 781091) plates and incubated inside a 5% CO2 incubator at 37° C. for 48 hours. After incubation, the wells of the plates were washed 5 times with H2O and set to dry overnight at room temperature and were used within 24 hours after drying.
Mice were euthanized and their brains were extracted and placed in cold Hank's balanced salt solution (HBSS) followed by microdissection of the cortex. Up to 1.25 grams of cortical tissue were placed in gentleMACS™ C tubes (Miltenyi Biotec, #130-093-237), where each tube contained 5 mL of 0.3 mg/mL papain (Worthington, LS003126) diluted in HBSS.
The gentleMACS™ C tubes were placed on the gentleMACS™ Octo Dissociator with heaters (Miltenyi Biotec, #130-096-427) with heating cuffs attached and underwent the gentleMACS Program 37C_ABDK_01 protocol. After protocol completion, the contents of the gentleMACS™ C Tube were strained through a 70 μm cell strainer (Miltenyi Biotec, #130-110-916) placed on top of a 15 mL conical centrifuge tube. Then, 7 mL of cold Dulbecco's Phosphate-Buffered Saline with glucose and pyruvate (DPBS, Thermo Fisher Scientific, 14287072) was added into each of the 15 mL conical centrifuge tubes on top of the strained cells. The 15 mL tubes were centrifuged at 300×g for 10 minutes at 4° C. before aspirating the supernatant completely.
Debris removal solution was made by adding 1800 μL of Debris Removal Concentrate (Miltenyi Biotec, #130-109-398) to 6200 μL of cold DPBS. The remaining pellet inside the 15 mL tubes was resuspended with 8 mL of Debris Removal Solution. Very slowly, 4 mL of cold DPBS was dispensed on top of the debris removal solution and cell mixture in each 15 mL tube forming a clear layer on top. The 15 mL tubes were centrifuged at 3000×g for 10 minutes at 4° C. with slow acceleration and deceleration. The top clear and middle debris layers were aspirated leaving the milky mixture beneath the debris layer untouched. 6 mL of DPBS was added onto the milky mixture and mixed gently before centrifuging at 300×g for 5 minutes at 4° C. All supernatant was aspirated afterwards.
Red Blood Cell Remover Solution was made by mixing 125 μL of Red Blood Cell Lysis Solution 10× (Miltenyi Biotec, #130-094-183) with 1125 μL of H2O. The remaining pellet was resuspended in 1.25 mL of Red Blood Cell Remover Solution and incubated for 10 minutes at 4° C. before the addition of 12 mL of 0.5% bovine serum albumin (BSA, Miltenyi Biotec, #130-091-376) diluted in DPBS. The mixture was centrifuged at 300×g for 5 minutes at 4° C. with the supernatant aspirated completely afterwards. The remaining pellet was resuspended in 80 μL of 0.5% BSA and 20 μL of Non-Neuronal Cells Biotin-Antibody Cocktail (Miltenyi Biotec, #130-115-389) and incubated for 5 minutes at 4° C. Cells were washed by adding 2 mL of 0.5% BSA followed by centrifugation at 300×g for 5 minutes at 4° C. followed by aspiration of the supernatant. The remaining pellet was resuspended in 80 μL of 0.5% BSA and 20 μL of Anti-Biotin MicroBeads (Miltenyi Biotec, #130-115-389) and incubated for 10 minutes at 4° C.
After the addition of 6 mL 0.5% BSA, the mixture was flowed through 0.5% BSA primed LS columns (Miltenyi Biotec, #130-042-401). The negative fraction containing the majority of neurons was collected and centrifuged at 300×g for 5 minutes at 4° C. and resuspended in neuron media. […]

[1] = young adult male mice, 2DIV, PDL coated wells, laminin coating 10 μg/mL
[2] = 5 μM (S)-H-1152 vs Vehicle (0.05% DMSO), young adult male mice, 2DIV, 10,000 cells plated per well, two-way ANOVA
[3] = young adult male mice, 2DIV, relative to 0% DMSO

In the case of laminin, the “average neurite length, change relative to the control group (no B27+ supplement or laminin coating)” value [1] is reported as “did not induce a significant changes”, the “number of valid neurons, change relative to the control group (no B27+ supplement or laminin coating)” value [1] is reported as “did not induce a significant changes” and the “total neurite outgrowth, change relative to the control group (no B27+ supplement or laminin coating)” value [1] is reported as “did not induce a significant changes”.
`CC(=O)O[C@H]1C(=O)[C@]2(C)[C@H](O)C[C@H]3OC[C@@]3(OC(C)=O)[C@H]2[C@H](OC(=O)c2ccccc2)[C@]2(O)C[C@H](OC(=O)[C@H](O)[C@@H](NC(=O)c3ccccc3)c3ccccc3)C(C)=C1C2(C)C` [7-epi Paclitaxel] was tested, and the “average neurite length vs Vehicle” value (middle-aged male cohort) was “significantly increased”, the “number of valid neurons vs Vehicle” value (middle-aged male cohort) was “without affecting” and the “total neurite outgrowth vs Vehicle” value (middle-aged male cohort) was “without affecting”. The “average neurite length vs Vehicle” value (young adult female cohort) was “significantly increased”, the “number of valid neurons vs Vehicle” value (young adult female cohort) was “significantly decreased” and the “total neurite outgrowth vs Vehicle” value (young adult female cohort) was “significantly decreased”. The “average neurite length vs Vehicle” value (young adult male cohort) was “significantly increased”, the “number of valid neurons vs Vehicle” value (young adult male cohort) was “significantly decreased” and the “total neurite outgrowth vs Vehicle” value (young adult male cohort) was “significantly decreased”. For the same compound, the overall screening result (middle-aged male neurons) was “overall positive result” and the overall screening result (young adult neurons) was “overall negative result”.
With `Cc1cncc2cccc(S(=O)(=O)N3CCCNC[C@@H]3C)c12` [(S)-H-1152] the average neurite length [2] was “significantly increased”, the “number of valid neurons” value [2] was “significantly increased” and the “slope of the total neurite outgrowth linear regression line against cell plating density” value (5 μM (S)-H-1152 vs Vehicle, young adult male mice, 2DIV, 1,500-15,000 cells per well) was “steeper increase”.
For `C[S+](C)[O-]` [DMSO, Dimethyl sulfoxide], the “correlation between average neurite length and % DMSO in the media (linear regression)” value [3] was “significant negative correlation”, the “correlation between number of valid neurons per well and % DMSO in the media (linear regression)” value [3] was “significant negative correlation” and the “correlation between total neurite outgrowth and % DMSO in the media (linear regression)” value [3] was “significant negative correlation”.

From US20240279603A1, “METHODS OF PROCESSING ADULT NEURAL CELLS FROM MAMMALS AND ASSAYS THEREOF” (THE TEXAS A&M UNIVERSITY SYSTEM, priority 2021, published 2024)
